Molecular target: T1, H^+ -K^+ -ATPase (Sus scrofa, UniProt P19156)
T1 construct: which was prepared from the stomach of swine; from tissue; host or cells: stomach of swine
Assay: Inhibitory Effect Test for the Activity of H^+ -K^+ -ATPase
Format: biochemical
Conditions: H+-K+-ATPase from the stomach of swine; preincubation pH 6.1, room temperature 30 min; reaction pH 7.4, 37° C. 30 min; read-out: IC50 (50% inhibition dosage)
Experimental: H^+ -K^+ -ATPase (hydrogen-potassium-activated adenosine triphosphatase) (protein content: 10 mcg) which was prepared from the stomach of swine was added to PIPES-tris[buffer PIPES-tris(hydroxymethyl)-2-amino-1,3-propanediol buffer (pH=6.1) containing 2 mM of piperazine-N,N'-bis(2-ethanesulfonic acid)], then the resulting mixture was let allowed to stand at room temperature.
Each of the test compounds was dissolved in dimethylformamide, and the dimethylformamide solution was added to the above-mentioned H^+ -K^+ -ATPase buffer solution so as to adjust the final concentration of the test compound to 1.0%. Each of thus prepared mixture was reacted at room temperature for 30 minutes.
Next, the above-mentioned reaction mixture was divided into two portions, and to the one portion thereof was added 1 ml of 75 mM PIPES-tris buffer solution (pH=7.4) (containing 4 mM of MgCl2, 4 mM of Na2 ATP and 20 mM of KCl), on the other hand, to another portion of the reaction mixture was added 1 ml of 75 mM PIPES-tris buffer solution (pH=7.4) (containing 4 mM of MgCl2 and 4 mM of Na2 ATP), respectively. Each of these two series of sample solutions was separately reacted at 37° C. for 30 minutes. Then to each of these reaction mixtures was added 0.3 ml of 40% trichloroacetic acid to terminate the reaction, and was subjected to centrifugal separation at 3,000 rpm for 10 minutes to obtain the supernatent. Next, the inorganic phosphoric acid formed in the reaction mixture was determined by a method according to the article by C. H. Fiske and Y. Subbarow: J. Biol. Chem., Vol. 66, pages 375-400, (1925). The difference of the value obtained by substracting the quantity of inorganic phosphoric acid determined by using PIPES-tris buffer solution without containing 20 mM of KCl from the quantity of inorganic phosphoric acid determined by using PIPES-tris buffer solution containing 20 mM of KCl, was converted into as activity value of enzyme with respect to the unit protein and unit time.
Inhibitory rate (%) of each of the test compounds was obtained from the activity value of the enzyme at the respective dosages in the test groups and those of obtained from the control group, then IC50 (50% inhibition dosage of each of the test compounds) was calculated from the inhibitory rate (%).

T1 sequence (P19156 2-1034 limits assumed): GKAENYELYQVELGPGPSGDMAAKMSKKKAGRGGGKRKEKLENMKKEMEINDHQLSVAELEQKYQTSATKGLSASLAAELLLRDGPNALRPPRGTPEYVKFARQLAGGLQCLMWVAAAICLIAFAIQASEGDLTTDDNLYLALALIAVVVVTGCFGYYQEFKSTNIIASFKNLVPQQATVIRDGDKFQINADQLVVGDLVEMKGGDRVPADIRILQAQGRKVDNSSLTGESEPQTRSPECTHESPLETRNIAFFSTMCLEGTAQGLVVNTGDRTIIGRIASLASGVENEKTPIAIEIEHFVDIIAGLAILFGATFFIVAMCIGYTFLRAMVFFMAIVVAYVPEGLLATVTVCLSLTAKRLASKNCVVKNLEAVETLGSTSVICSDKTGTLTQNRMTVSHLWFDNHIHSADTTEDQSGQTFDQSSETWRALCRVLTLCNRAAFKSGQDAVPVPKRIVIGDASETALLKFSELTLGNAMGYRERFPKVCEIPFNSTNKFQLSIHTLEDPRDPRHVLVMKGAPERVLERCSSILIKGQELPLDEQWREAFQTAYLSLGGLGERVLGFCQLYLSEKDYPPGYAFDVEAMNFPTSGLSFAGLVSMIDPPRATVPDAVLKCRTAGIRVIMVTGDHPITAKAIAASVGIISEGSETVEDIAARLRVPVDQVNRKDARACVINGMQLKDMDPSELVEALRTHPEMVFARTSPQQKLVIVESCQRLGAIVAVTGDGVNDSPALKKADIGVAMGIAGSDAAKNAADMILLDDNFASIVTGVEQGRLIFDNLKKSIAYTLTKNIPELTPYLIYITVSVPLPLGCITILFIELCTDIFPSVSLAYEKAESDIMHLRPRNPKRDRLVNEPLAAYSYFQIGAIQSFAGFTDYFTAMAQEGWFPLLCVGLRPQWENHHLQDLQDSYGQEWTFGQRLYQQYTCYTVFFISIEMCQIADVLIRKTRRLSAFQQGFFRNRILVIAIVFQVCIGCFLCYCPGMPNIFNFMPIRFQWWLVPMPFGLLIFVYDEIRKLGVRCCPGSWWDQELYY
T1 sequence (P18434 whole entry partner): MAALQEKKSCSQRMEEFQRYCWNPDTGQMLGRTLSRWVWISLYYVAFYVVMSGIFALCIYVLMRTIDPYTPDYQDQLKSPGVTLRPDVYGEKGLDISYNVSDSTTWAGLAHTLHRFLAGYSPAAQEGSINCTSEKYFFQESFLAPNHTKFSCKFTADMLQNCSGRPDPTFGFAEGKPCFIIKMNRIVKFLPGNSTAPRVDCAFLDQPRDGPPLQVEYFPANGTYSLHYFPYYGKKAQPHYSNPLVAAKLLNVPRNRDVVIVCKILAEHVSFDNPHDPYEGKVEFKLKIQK

Row | SMILES | IC50 [nM]
1 | Cc1cnc2c(c1)CCCC2[S+]([O-])c1nc2ccccc2[nH]1 (stereo not shown) [Test compound 15, 3-Methyl-8-(2-benzimidazolyl)sulfinyl-5,6,7,8-tetrahydroquinoline] | 1800
2 | CC(=O)c1ccc2nc([S+]([O-])C3CCCc4cc(C)cnc43)[nH]c2c1 (stereo not shown) [Test compound 18, 3-Methyl-8-(5-acetyl-2-benzimidazolyl)-sulfinyl-5,6,7,8-tetrahydroquinoline] | 3200
3 | COc1cc2nc([S+]([O-])C3CCCc4cc(C)cnc43)[nH]c2cc1OC (stereo not shown) [Test compound 19, 3-Methyl-8-(5,6-dimethoxy-2-benzimidazolyl)-sulfinyl-5,6,7,8-tetrahydroquinoline] | 3100
4 | COc1ccc2nc([S+]([O-])C3CCCc4ccc(Cl)nc43)[nH]c2c1 (stereo not shown) [Test compound 21, 2-Chloro-8-(5-methoxy-2-benzimidazolyl)-sulfinyl-5,6,7,8-tetrahydroquinoline] | 2700
5 | COc1ccc2nc([S+]([O-])C3CCCc4cc(C)c(Cl)nc43)[nH]c2c1 (stereo not shown) [Test compound 22, 2-Chloro-3-methyl-8-(5-methoxy-2-benzimidazolyl)sulfinyl-5,6,7,8-tetrahydroquinoline] | 2100
6 | COc1ccc2nc([S+]([O-])C3CCCc4cccnc43)[nH]c2c1 (stereo not shown) [Test compound 23, 8-(5-Methoxy-2-benzimidazolyl)sulfinyl-5,6,7,8-tetrahydroquinoline] | 1900
7 | COc1ccc2nc([S+]([O-])C3CCCc4c(OC)ccnc43)[nH]c2c1 (stereo not shown) [Test compound 24, 4-Methoxy-8-(5-methoxy-2-benzimidazolyl)-sulfinyl-5,6,7,8-tetrahydroquinoline] | 7600
8 | COc1ccnc2c1CCCC2[S+]([O-])c1nc2ccc(C(F)(F)F)cc2[nH]1 (stereo not shown) [Test compound 25, 4-Methoxy-8-(5-trifluoromethyl-2-benzimidazolyl)sulfinyl-5,6,7,8-tetrahydroquinoline] | 2900
9 | [O-][S+](c1nc2ccc(C(F)(F)F)cc2[nH]1)C1CCCc2cccnc21 (stereo not shown) [Test compound 28, 8-(5-Trifluoromethyl-2-benzimidazolyl)-sulfinyl-5,6,7,8-tetrahydroquinoline] | 1900
10 | COc1ccc2nc([S+]([O-])C3CCCc4ccc(O)nc43)[nH]c2c1 (stereo not shown) [Test compound 29, 2-Hydroxy-8-(5-methoxy-2-benzimidazolyl)-sulfinyl-5,6,7,8-tetrahydroquinoline] | 2300
11 | O=[N+]([O-])c1ccc2nc([S+]([O-])C3CCCc4cccnc43)[nH]c2c1 (stereo not shown) [Test compound 31, 8-(5-Nitro-2-benzimidazolyl)sulfinyl-5,6,7,8-tetrahydroquinoline] | 2900
12 | Cc1cccc2nc([S+]([O-])C3CCCc4cccnc43)[nH]c12 (stereo not shown) [Test compound 33, 8-(4-Methyl-2-benzimidazolyl)sulfinyl-5,6,7,8-tetrahydroquinoline] | 2600
13 | CCOc1cc2[nH]c([S+]([O-])C3CCCc4cccnc43)nc2cc1F (stereo not shown) [Test compound 37, 8-(5-Ethoxy-6-fluoro-2-benzimidazolyl)-sulfinyl-5,6,7,8-tetrahydroquinoline] | 3400
14 | Cc1cnc2c(c1)C([S+]([O-])c1nc3ccc(C(F)(F)F)cc3[nH]1)CCC2 (stereo not shown) [Test compound 39, 3-Methyl-5-(5-trifluoromethyl-2-benzimidazolyl)sulfinyl-5,6,7,8-tetrahydroquinoline] | 2980

The next lines start with the values.

Row | IC50 [nM] | SMILES
15 | 740 | C=CCOc1c(C)cnc2c1CCCC2[S+]([O-])c1nc2ccccc2[nH]1 (stereo not shown) [Test compound 1, 4-Allyloxy-8-(2-benzimidazolyl)sulfinyl-3-methyl-5,6,7,8-tetrahydroquinoline]
16 | 1800 | C=CCOc1c(C)cnc2c1CCCC2[S+]([O-])c1nc2cc(F)c(F)cc2[nH]1 (stereo not shown) [Test compound 2, 4-Allyloxy-8-(5,6-difluoro-2-benzimidazolyl)-sulfinyl-3-methyl-5,6,7,8-tetrahydroquinoline]
17 | 1100 | C#CCOc1c(C)cnc2c1CCCC2[S+]([O-])c1nc2ccc(F)cc2[nH]1 (stereo not shown) [Test compound 3, 8-(5-Fluoro-2-benzimidazolyl)sulfinyl-3-methyl-4-propargyloxy-5,6,7,8-tetrahydroquinoline]
18 | 610 | C=CCOc1c(C)cnc2c1CCCC2[S+]([O-])c1nc2cc(C)c(C)cc2[nH]1 (stereo not shown) [Test compound 4, 4-Allyloxy-8-(5,6-dimethyl-2-benzimidazolyl)-sulfinyl-3-methyl-5,6,7,8-tetrahydroquinoline]
19 | 310 | C=CCOc1c(C)cnc2c1CCCC2[S+]([O-])c1nc2cc(Cl)c(Cl)cc2[nH]1 (stereo not shown) [Test compound 5, 4-Allyloxy-8-(5,6-dichloro-2-benzimidazolyl)-sulfinyl-3-methyl-5,6,7,8-tetrahydroquinoline]
20 | 460 | C#CCOc1c(C)cnc2c1CCCC2[S+]([O-])c1nc2cc(C)c(C)cc2[nH]1 (stereo not shown) [Test compound 6, 8-(5,6-Dimethyl-2-benzimidazolyl)sulfinyl-3-methyl-4-propargyloxy-5,6,7,8-tetrahydroquinoline]
21 | 1200 | C#CCOc1c(C)cnc2c1CCCC2[S+]([O-])c1nc2ccccc2[nH]1 (stereo not shown) [Test compound 7, 8-(2-Benzimidazolyl)sulfinyl-3-methyl-4-propargyloxy-5,6,7,8-tetrahydroquinoline]
22 | 290 | C#CCOc1c(C)cnc2c1CCCC2[S+]([O-])c1nc2cc(Cl)c(Cl)cc2[nH]1 (stereo not shown) [Test compound 8, 8-(5,6-Dichloro-2-benzimidazolyl)sulfinyl-3-methyl-4-propargyloxy-5,6,7,8-tetrahydroquinoline]
23 | 840 | COCCOc1c(C)cnc2c1CCCC2[S+]([O-])c1nc2ccccc2[nH]1 (stereo not shown) [Test compound 9, 8-(2-Benzimidazolyl)sulfinyl-4-(2-methoxyethoxy)-3-methyl-5,6,7,8-tetrahydroquinoline]
24 | 870 | COCCOc1c(C)cnc2c1CCCC2[S+]([O-])c1nc2ccc(F)cc2[nH]1 (stereo not shown) [Test compound 10, 8-(5-Fluoro-2-benzimidazolyl)sulfinyl-4-(2-methoxyethoxy)-3-methyl-5,6,7,8-tetrahydroquinoline]
25 | 730 | C=CCOc1c(C)cnc2c1CCCC2[S+]([O-])c1nc2ccc(F)cc2[nH]1 (stereo not shown) [Test compound 11, 4-Allyloxy-8-(5-fluoro-2-benzimidazolyl)-sulfinyl-3-methyl-5,6,7,8-tetrahydroquinoline]
26 | 1100 | COc1ccc2nc([S+]([O-])C3CCCc4c(C)ccnc43)[nH]c2c1 (stereo not shown) [Test compound 13, 4-Methyl-8-(5-methoxy-2-benzimidazolyl)-sulfinyl-5,6,7,8-tetrahydroquinoline]
27 | 1500 | COc1ccc2nc([S+]([O-])C3CCCc4ccc(C)nc43)[nH]c2c1 (stereo not shown) [Test compound 14, 2-Methyl-8-(5-methoxy-2-benzimidazolyl)-sulfinyl-5,6,7,8-tetrahydroquinoline]
28 | 1100 | Cc1cnc2c(c1)CCCC2[S+]([O-])c1nc2ccc(C)cc2[nH]1 (stereo not shown) [Test compound 16, 3-Methyl-8-(5-methyl-2-benzimidazolyl)-sulfinyl-5,6,7,8-tetrahydroquinolin]
29 | 1500 | Cc1cnc2c(c1)CCCC2[S+]([O-])c1nc2ccc(C(F)(F)F)cc2[nH]1 (stereo not shown) [Test compound 27, 3-Methyl-8-(5-trifluoromethyl-2-benzimidazolyl)sulfinyl-5,6,7,8-tetrahydroquinoline]
30 | 930 | COc1cc2nc([S+]([O-])C3CCCc4cccnc43)[nH]c2cc1OC (stereo not shown) [Test compound 30, 8-(5,6-Dimethoxy-2-benzimidazolyl)sulfinyl-5,6,7,8-tetrahydroquinoline]
31 | 220 | COc1c(C)cnc2c1CCCC2[S+]([O-])c1nc2ccc(F)cc2[nH]1 (stereo not shown) [Test compound 34, 3-Methyl-4-methoxy-8-(5-fluoro-2-benzimidazolyl)sulfinyl-5,6,7,8-tetrahydroquinoline]
32 | 250 | COc1c(C)cnc2c1CCCC2[S+]([O-])c1nc2ccccc2[nH]1 (stereo not shown) [Test compound 35, 3-Methyl-4-methoxy-8-(2-benzimidazolyl)-sulfinyl-5,6,7,8-tetrahydroquinoline]
33 | 700 | [O-][S+](c1nc2cc(Cl)c(Cl)cc2[nH]1)C1CCCc2cccnc21 (stereo not shown) [Test compound 36, 8-(5,6-Dichloro-2-benzimidazolyl)sulfinyl-5,6,7,8-tetrahydroquinoline]
34 | 340 | COc1c(C)cnc2c1CCCC2[S+]([O-])c1nc2cc(C)c(C)cc2[nH]1 (stereo not shown) [Test compound 38, 3-Methyl-4-methoxy-8-(5,6-dimethyl-2-benzimidazolyl)sulfinyl-5,6,7,8-tetrahydroquinoline]
